Reference: patent publication US8471027B2, “Adamantyl compounds” (Hoffmann-La Roche Inc., priority 2011, dated 2013)

Legend:
[1] = tested on: phospho(Ser63)-c-jun in HK-2 cells; assay: Cell-based assay for JNK inhibitors: in-cell ELISA of TNFα-stimulated phospho(Ser63)-c-jun in HK-2 cells; conditions: Homo sapiens, 10 ng/mL TNFα, 60 min preincubation with compound
Method: Cell-Based Assay for JNK Inhibitors
The cell-based assay employed the in-cell ELISA method to determine the ability of compounds to prevent the generation of phospho(Ser63)-c-jun in HK-2 cells (human proximal tubule cells) in response to stimulation with tumor necrosis factor α (TNFα). In brief, for quantification of phospho(Ser63)-c-jun, the cells (in 96-well format) were fixed and permeablized then incubated sequentially with a rabbit anti-phospho-c-jun First Antibody specific for the presence of the phospho-Ser63 epitope and a donkey anti-rabbit IgG Second Antibody linked to horseradish peroxidase (HRP) for colorimetric quantitation of binding. For determination of non-specific binding of the First Antibody, Blank wells were preincubated with a mouse anti-phospho(Ser63)-c-jun Blocking Antibody that prevented specific binding of the First Antibody to the phospho-Ser63 epitope, but which was not recognized by the donkey anti-rabbit IgG Second Antibody. […] Blank wells received no TNFα stimulation or compound. Additional Control wells received TNFα stimulation, but no compound. The signal obtained in this case was considered the value for 0% inhibition (Control value).
Stock cultures of HK-2 cells (ATCC, Manassas, Va.) were grown under a 5% CO2/[…] atmosphere at 37 degrees C. in Keratinocyte-SFM medium (KSFM, Invitrogen, Grand Island, N.Y.) containing 5 μg/L epidermal growth factor and 5 mg/L bovine pituitary extract (both supplied with the medium), additionally supplemented with 10% (v/v) fetal calf serum (FCS; Invitrogen, Grand Island, N.Y.) and 1% (v/v) antibiotic-antimycotic (ABAM: Sigma, St. Louis, Mo.). For assays, cells were seeded in collagen coated 96-well polystyrene plates (BD Biosciences, Franklin Lakes, N.J.) at a density of 40,000 cells/well and cultured for 24 h in the same medium (100 μL/well) followed by a further 16-24 h in 100 μL of similar medium, but without FCS. […] Cells were incubated for a further 30 minutes and then the medium was aspirated and the wells washed with 100 μL/well PBS followed by the addition of 100 μL 3.7% (v/v) Formaldehyde (Fisher Scientific, Fair Lawn, N.J.) in PBS. Plates were then allowed to stand at room temperature for 20 minutes before being washed with 200 μL/well of PBS. (Further steps were performed immediately or the plates were stored at 4 degrees C. and the assay completed the next day.) To each well was added 100 μL 1% (v/v) TritonX-100 (Sigma, St. Louis, Mo.) in PBS followed by 20 minutes standing at room temperature, washing with 200 μL/well PBS, the addition of 100 μL/well of Quenching buffer (1% (v/v) hydrogen peroxide (Sigma, St. Louis, Mo.) and 0.1% (w/v) sodium azide (Fisher Scientific, Fair Lawn, N.J.)) in PBS and a further 20 minutes at room temperature. Plates were then washed twice with 200 μL/well of 0.1% (v/v) Tween-20 (Teknova, Hollister, Calif.) in PBS before addition of 200 μL/well of 2% BSA/0.10% Tween-20 in PBS and a further 1 hour at room temperature. At this time, buffer was removed from Blank wells and replaced with 90 μL/well of mouse anti-phospho-c-jun-Ser63 (BD Bioscience, 558036) diluted 1:4000 in PBS containing 1% BSA/0.1% Tween-20 (Antibody Dilution Buffer). All other wells are replaced with 90 μL/well of rabbit anti-phospho-c-jun-Ser63 (Cell Signaling, 9261) diluted 1:250 in Antibody Dilution Buffer. After a further one hour, rabbit anti-phospho-c-jun-Ser63 is added directly to the solution in the Blank wells resulting in 1:250 dilution of this antibody. Plates were then placed on a slowly rotating platform at 4 degrees C. overnight. Wells were then washed thrice with 200 μL/well PBS/0.1% Tween-20. After addition of the third wash, the plates were placed on a slowly rotating platform for 15 minutes at room temperature. […]

JNK1 = JNK1 (Homo sapiens, UniProt P45983); assay: In vitro JNK1 Assay (TR-FRET, phosphorylation of GST-c-Jun); assay type: biochemical; conditions: 0.2 nM JNK1, 26.7 nM GST-c-Jun, 2 μM ATP
Method: Phosphorylation of GST-c-Jun protein (amino acid residues 1-79) was measured as JNK1 activity. […] The reaction buffer contained 50 mM HEPES, pH 7.0, 10 mM MgCl2, 1 mM DTT, 0.1 mM Na3 VO4 and 0.2 mg/mL BSA. After 30 min. incubation at room temperature, the reaction was terminated by adding buffer containing 8 mM EDTA and a polyclonal anti-phospho-c-Jun antibody (Cell Signaling #9261L), followed by an additional incubation of 30 min. at room temperature. […] Time-resolved Fluorescence Resonance Energy Transfer (TR-FRET) signals were measured 1 hr. later on the EnVision reader (Perkin Elmer). Compound potency was assessed at 10 serially diluted concentrations. Percentage of inhibition at each concentration was determined to generate an IC50 value for each compound.

phospho-(Ser63)-c-jun = assay: Mouse In Vivo TNFα-Induced Kidney and Liver Phospho-c-Jun Assay; design: species or system C57/BL6 mice; conditions: Example B, procedures identical to Example A
Method: Male C57/BL6 mice were obtained from Jackson Labs and acclimatized for at least one week prior to use at age 10-12 weeks. Mice (n=8 per group) were administered Compound I-1 (Group 3; 50 mg/kg from a 12.5 mg/mL preparation in 20% (v/v)DMSO/80% (v/v) PEG400) or vehicle alone (Groups 1 and 2) via oral gavage. One hour later, mice received an intravenous challenge of 5 μg/kg recombinant mouse TNFα (Sigma) in saline (Groups 2 and 3) or saline alone (Group 1). After a further 1 h, the animals were killed by carbon dioxide inhalation. Kidneys and livers were removed, rapidly frozen in liquid nitrogen and stored at −80 degrees until analysis.
For analysis of livers, portions of frozen tissue (100-200 mg) were homogenized in lysis buffer (Cell Signaling Technology) supplemented with 1% (v/v) of each of Phosphatase Inhibitor Cocktail-1 (Sigma), Phosphatase Inhibitor Cocktail-2 (Sigma), Protease Inhibitor Cocktail (Sigma) and 1 mM AEBSF (Sigma). The phospho-(Ser63)-c-jun content was quantified using an ELISA kit (Cell Signaling Technology).
Experimental procedures were identical to Example A, but using 7-chloro-3-(4-methanesulfonyl-benzyl)-4-oxo-1-phenyl-1,4-dihydro-quinoline-2-carboxylic acid methyl ester.

Sequence of JNK1 (P45983 whole entry, species assumed, the tested form may be a part): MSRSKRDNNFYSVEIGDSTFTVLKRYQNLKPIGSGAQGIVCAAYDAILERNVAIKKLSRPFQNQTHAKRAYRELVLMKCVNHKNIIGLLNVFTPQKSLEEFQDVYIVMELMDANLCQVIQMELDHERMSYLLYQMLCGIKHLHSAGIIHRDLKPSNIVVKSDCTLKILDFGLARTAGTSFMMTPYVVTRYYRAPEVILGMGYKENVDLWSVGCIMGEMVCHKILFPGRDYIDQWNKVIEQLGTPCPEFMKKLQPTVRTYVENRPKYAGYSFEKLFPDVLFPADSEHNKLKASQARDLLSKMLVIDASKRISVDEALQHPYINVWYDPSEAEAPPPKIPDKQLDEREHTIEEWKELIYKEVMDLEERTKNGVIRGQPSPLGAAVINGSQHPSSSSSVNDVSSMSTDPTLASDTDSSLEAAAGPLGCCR

In the case of `COC(=O)c1c(Cc2ccc(S(C)(=O)=O)cc2)c(=O)c2ccc(Cl)cc2n1-c1ccccc1` [7-chloro-3-(4-methanesulfonyl-benzyl)-4-oxo-1-phenyl-1,4-dihydro-quinoline-2-carboxylic acid methyl ester, reference compound], the EC50 [1] is reported as 15000 nM, the IC50 (JNK1) is reported as 32 nM and the “effect on the levels of phospho-(Ser63)-c-jun in the kidneys” value (phospho-(Ser63)-c-jun) is reported as “No significant effect”. The “effect on the levels of phospho-(Ser63)-c-jun in the livers” value (phospho-(Ser63)-c-jun) was “No significant effect”.
Work on `COC(=O)c1c(Cc2ccc(C(=O)N[C@@H]3[C@@H]4C[C@@H]5C[C@H]3C[C@@](NC(C)=O)(C5)C4)cc2)c(=O)c2cccnc2n1-c1ccccc1` [Compound I-17, rel-3-[4-((1S,2S,3R,5S,7S)-5-Acetylamino-adamantan-2-ylcarbamoyl)-benzyl]-4-oxo-1-phenyl-1,4-dihydro-[1,8]naphthyridine-2-carboxylic acid methyl ester] yielded an EC50 [1] of 3100 nM and an IC50 (JNK1) of 26 nM.
Work on `COC(=O)c1c(Cc2ccc(C(=O)N[C@@H]3[C@@H]4C[C@@H]5C[C@H]3C[C@@](NS(=O)(=O)C3CC3)(C5)C4)cc2)c(=O)c2cccnc2n1-c1ccccc1` [Compound I-18, rel-3-[4-((1S,2S,3R,5S,7S)-5-Cyclopropanesulfonylamino-adamantan-2-ylcarbamoyl)-benzyl]-4-oxo-1-phenyl-1,4-dihydro-[1,8]naphthyridine-2-carboxylic acid methyl ester] yielded an EC50 [1] of 1800 nM and an IC50 (JNK1) of 5 nM.
Work on `COC(=O)c1c(Cc2ccc(C(=O)N[C@@H]3[C@@H]4C[C@@H]5C[C@H]3C[C@@](NS(C)(=O)=O)(C5)C4)cc2)c(=O)c2cccnc2n1-c1ccccc1` [Compound I-19, rel-3-[4-((1S,2S,3R,5S,7S)-5-Methanesulfonylamino-adamantan-2-ylcarbamoyl)-benzyl]-4-oxo-1-phenyl-1,4-dihydro-[1,8]naphthyridine-2-carboxylic acid methyl ester] yielded an EC50 [1] of 2100 nM and an IC50 (JNK1) of 11 nM.
For `COC(=O)c1c(Cc2ccc(C(=O)N[C@@H]3[C@@H]4C[C@@H]5C[C@H]3C[C@@](NC(=O)C(C)(C)C)(C5)C4)cc2)c(=O)c2cccnc2n1-c1ccccc1` [Compound I-20, rel-3-{4-[(1S,2S,3R,5S,7S)-5-(2,2-Dimethyl-propionylamino)-adamantan-2-ylcarbamoyl]-benzyl}-4-oxo-1-phenyl-1,4-dihydro-[1,8]naphthyridine-2-carboxylic acid methyl ester], the EC50 [1] was 5300 nM and the IC50 (JNK1) was 39 nM.
`COC(=O)c1c(Cc2ccc(C(=O)N[C@@H]3[C@@H]4C[C@@H]5C[C@H]3C[C@@](NC(=O)C(C)(C)OC(C)=O)(C5)C4)cc2)c(=O)c2cccnc2n1-c1ccccc1` [Compound I-21, rel-3-{4-[(1S,2S,3R,5S,7S)-5-(2-Acetoxy-2-methyl-propionylamino)-adamantan-2-ylcarbamoyl]-benzyl}-4-oxo-1-phenyl-1,4-dihydro-[1,8]naphthyridine-2-carboxylic acid methyl ester] was tested, and the EC50 [1] was 4800 nM and the IC50 (JNK1) was 25 nM.
Work on `COC(=O)c1c(Cc2ccc(C(=O)N[C@@H]3[C@@H]4C[C@@H]5C[C@H]3C[C@@](NC(=O)C(C)(C)O)(C5)C4)cc2)c(=O)c2cccnc2n1-c1ccccc1` [Compound I-22, rel-3-{4-[(1S,2S,3R,5S,7S)-5-(2-Hydroxy-2-methyl-propionylamino)-adamantan-2-ylcarbamoyl]-benzyl}-4-oxo-1-phenyl-1,4-dihydro-[1,8]naphthyridine-2-carboxylic acid methyl ester] yielded an EC50 [1] of 4100 nM and an IC50 (JNK1) of 22 nM.
Compound `COC(=O)c1c(Cc2ccc(C(=O)N[C@@H]3[C@@H]4C[C@@H]5C[C@H]3C[C@@](O)(C5)C4)cc2OC)c(=O)c2cccnc2n1-c1ccccc1` [Compound I-23, rel-3-[4-((1S,2S,3R,5S,7S)-5-Hydroxy-adamantan-2-ylcarbamoyl)-2-methoxy-benzyl]-4-oxo-1-phenyl-1,4-dihydro-[1,8]naphthyridine-2-carboxylic acid methyl ester] has an EC50 [1] of 7800 nM and an IC50 (JNK1) of 27 nM.
`COC(=O)c1c(Cc2ccc(C(=O)N[C@@H]3[C@@H]4C[C@@H]5C[C@H]3C[C@@](O)(C5)C4)cc2F)c(=O)c2cccnc2n1-c1ccccc1` [Compound I-24, rel-3-[2-Fluoro-4-((1S,2S,3R,5S,7S)-5-hydroxy-adamantan-2-ylcarbamoyl)-benzyl]-4-oxo-1-phenyl-1,4-dihydro-[1,8]naphthyridine-2-carboxylic acid methyl ester] was tested, and the EC50 [1] was 8600 nM and the IC50 (JNK1) was 34 nM.
`COC(=O)c1c(Cc2ccc(C(=O)N[C@@H]3[C@@H]4C[C@@H]5C[C@H]3C[C@@](O)(C5)C4)cc2)c(=O)c2ccc(C(F)(F)F)nc2n1-c1ccccc1` [Compound I-25, rel-3-[4-((1S,2S,3R,5S,7S)-5-Hydroxy-adamantan-2-ylcarbamoyl)-benzyl]-4-oxo-1-phenyl-7-trifluoromethyl-1,4-dihydro-[1,8]naphthyridine-2-carboxylic acid methyl ester] gave an EC50 [1] of 3600 nM and an IC50 (JNK1) of 77 nM.
Compound `COC(=O)c1c(Cn2ccc(C(=O)N[C@@H]3[C@@H]4C[C@@H]5C[C@H]3C[C@@](O)(C5)C4)cc2=O)c(=O)c2ccc(Cl)cc2n1-c1ccccc1` [Compound I-26, rel-7-Chloro-3-[4-((1S,2S,3R,5S,7S)-5-hydroxy-adamantan-2-ylcarbamoyl)-2-oxo-2H-pyridin-1-ylmethyl]-4-oxo-1-phenyl-1,4-dihydro-quinoline-2-carboxylic acid methyl ester] has an EC50 [1] of 3900 nM and an IC50 (JNK1) of 40 nM.
`O=C(N[C@@H]1[C@@H]2C[C@@H]3C[C@H]1C[C@@](O)(C3)C2)c1ccc(Cc2c(-c3ncco3)n(-c3ccccc3)c3cc(Cl)ccc3c2=O)cc1` [Compound I-27, Rel-4-(7-Chloro-2-oxazol-2-yl-4-oxo-1-phenyl-1,4-dihydro-quinolin-3-ylmethyl)-N-((1S,2S,3R,5S,7S)-5-hydroxy-adamantan-2-yl)-benzamide] was tested, and the EC50 [1] was 8600 nM and the IC50 (JNK1) was 27 nM.
